Legend:
Details in all cases: 72 h
HL-60 = experiment: area under dose-response curve (viability, 1 nM-10 uM) (fraction (0-1)); higher = more sensitive
How it was run: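 Area under the curve, where listed, was derived from four-parameter log-logistic fits with drc and PharmacoGx. These fits used CellTiter-Glo viability from HL-60 cells in RPMI 1640 with 10% FBS, normalised to DMSO wells and wells holding 10 μM proteasome inhibitor. The full library was rescreened on 384-well plates in duplicate at five tenfold concentrations, 1–10,000 nM, with DMSO or 100 nM of one of three metabolic inhibitors, for 72 h at 37 °C, 5% CO2.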

HEL = experiment: cell viability (% survival relative to DMSO control, bortezomib = 0%); higher = less cytotoxic
How it was run: (§1)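 Fifteen myeloid leukaemia cell lines (10 AML, 5 CML) were seeded at a density titrated to the linear growth range. They went into 384-well plates with compounds pre-printed at 1, 10, 100, 1000 or 10000 nM in duplicate. After 72 h at 37 °C with 5% CO2, viability was read by CellTiter-Glo luminescence. Values are percent survival, with vehicle set to 100% and a 10 µM positive control to 0%, averaged over the duplicates.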

KCL-22 = experiment: as above
How it was run: as §1

[1] = co-treatment: GSK2194069 100 nM
[2] = co-treatment: pictilisib 100 nM

SMILES	area under dose-response curve (HL-60; co-treatment: AZD3965 100 nM)	area under dose-response curve (HL-60; co-treatment: DMSO vehicle)	area under dose-response curve (HL-60; [1])	area under dose-response curve (HL-60; [2])	cell viability (HEL; 1 nM) [%]	cell viability (HEL; 10 nM) [%]	cell viability (HEL; 100 nM) [%]	cell viability (HEL; 1000 nM) [%]	cell viability (HEL; 10000 nM) [%]	cell viability (KCL-22; 1 nM) [%]	cell viability (KCL-22; 10 nM) [%]	cell viability (KCL-22; 100 nM) [%]	cell viability (KCL-22; 1000 nM) [%]	cell viability (KCL-22; 10000 nM) [%]
Clc1ccc2c(c1Cl)CNCC2	< 0.0301	< 0.0301	< 0.0301	< 0.0301	100	111	90.9	107	82.4	101	120	92.2	108	91.5
O=C(O)C(S)=Cc1c[nH]c2ccc(F)cc12	–	–	–	–	102	103	95.4	94	101	111	94.6	102	112	101
CC(C)Cc1sc(N)nc1-c1ccc(P(=O)(O)O)o1	< 0.0301	< 0.0301	< 0.0301	< 0.0301	95.3	93.1	118	109	85.5	95.8	108	108	112	101
Cl.OC[C@H]1NC[C@@H](O)[C@@H](O)[C@@H]1O [1-Deoxymannojirimycin hydrochloride]	< 0.0301	< 0.0301	< 0.0301	< 0.0301	102	83.2	112	119	86.1	95.9	86.8	96.4	111	105
CN(C)c1nc(O)c2[nH]cnc2n1 [2-Dimethylamino-6-hydroxypurine]	< 0.0301	< 0.0301	< 0.0301	< 0.0301	105	85.3	114	106	84.8	98.2	81.3	106	99	87.1
O=C(O)c1cc2sccc2[nH]1 [4H-thieno[3,2-b]pyrrole-5-carboxylic acid]	< 0.0301	< 0.0301	< 0.0301	< 0.0301	120	106	97.5	93.5	108	90.3	104	84.7	101	99.8
[N-]=[N+]=CC(=O)CC[C@H](N)C(=O)O [6-Diazo-5-oxo-L-norleucine]	< 0.0301	< 0.0301	< 0.0301	< 0.0301	98.6	109	98.5	95.1	96.6	94.7	104	109	109	101
O=C(O)CC[C@H](NC(=O)c1ccc([N+](=O)[O-])cc1)C(=O)O [(S)-2-(4-Nitrobenzamido)pentanedioic acid]	< 0.0301	< 0.0301	< 0.0301	< 0.0301	89.9	107	94	96.3	90.4	93.4	98.1	107	95.5	90.8
O=C1Nc2ccccc2/C1=C\NCCc1ccc(O)c(O)c1 [AC1NZZMF]	< 0.0301	< 0.0301	< 0.0301	< 0.0301	101	99.5	104	112	96.9	79.2	90.9	102	106	94.3

Source: the supplement of paper PMC8671470
